Our source for the melting point values is patent US20010031760A1, “Method of treating a patient having precancerous lesions with quinazoline derivatives” (priority 1995, published 2001).

Structures can show the parent of a compound that is named as a salt.

`COc1cc2nc(N3CCN(C(=O)c4cocn4)CC3)nc(N)c2cc1OC.Cl`: the melting point was 291 to 294 °C (dec.).
As to `COc1cc2nc(N3CCN(C(=O)c4coc(C)n4)CC3)nc(N)c2cc1OC.Cl`, the melting point is 278 to 280 °C (dec.).
`COc1cc2nc(N3CCN(C(=O)c4ocnc4C)CC3)nc(N)c2cc1OC.Cl`: the melting point was 283.5 to 288 °C (dec.).
As for `COc1cc2nc(N3CCN(C(=O)c4cnsc4)CC3)nc(N)c2cc1OC.Cl`, the figure is 286 to 287 °C (dec.).
As for `COc1cc2nc(N3CCN(C(=O)c4nccs4)CC3)nc(N)c2cc1OC.Cl`, the figure is 273 to 276 °C (dec.).
As for `COc1cc2nc(N3CCN(C(=O)c4cscn4)CC3)nc(N)c2cc1OC.Cl`, the figure is 274 to 277 °C (dec.); as for `COc1cc2nc(N3CCN(C(=O)c4csc(C)n4)CC3)nc(N)c2cc1OC.Cl`, 260 to 263 °C (dec.).
For the molecule `COc1cc2nc(N3CCN(C(=O)c4cncs4)CC3)nc(N)c2cc1OC.Cl`, the melting point is 280 to 281 °C (dec.).
`COc1cc2nc(N3CCN(C(=O)C4CCCC4)CC3)nc(NN)c2cc1OC.Cl`: the melting point is 282 to 284 °C.
For `COc1cc2nc(N3CCN(C(=O)c4csnn4)CC3)nc(N)c2cc1OC.Cl`, the melting point was 270 °C (dec.).
Turning to `COc1cc2nc(N3CCN(C(=O)c4cnns4)CC3)nc(N)c2cc1OC.Cl`, the melting point is 295 to 297 °C.
On to `COc1cc2nc(N3CCN(C(=O)c4ccon4)CC3)nc(N)c2cc1OC.Cl`, for which the melting point is 268 to 273 °C (dec.).
As for `COc1cc2nc(N3CCN(C(=O)c4cnoc4)CC3)nc(N)c2cc1OC.Cl`, the figure is 225 to 260 °C (dec.).
Turning to `COc1cc2nc(N3CCN(C(=O)c4cc(C)on4)CC3)nc(N)c2cc1OC.Cl`, the melting point was 271 to 273 °C (dec.).
Turning to `COc1cc2nc(N3CCN(C(=O)c4conc4C)CC3)nc(N)c2cc1OC.Cl`, the melting point was 300 to 301 °C (dec.).
As for `COc1cc2nc(N3CCN(C(=O)c4cc(C)no4)CC3)nc(N)c2cc1OC.Cl`, the figure is 263 to 264 °C (dec.); as for `COc1cc2nc(N3CCN(C(=O)C4CCCC4)CC3)nc(N)c2cc1OC` (as salt: hydrochloride) [Example 127, 4-Amino-2-[4-(cyclopentylcarbonyl)-1-piperazinyl]-6,7-dimethoxyquinazoline], 279 to 280 °C (dec.).
Regarding `COc1cc2nc(N3CCN(C(=O)C4CC=CCC4)CC3)nc(N)c2cc1OC` (stereo not drawn) [Example 132, 4-Amino-2-[4-(3-cyclohexenylcarbonyl)-1-piperazinyl]-6,7-dimethoxyquinazoline], the melting point lay within 234 to 236 °C.
